The text below walks through data of patent publication US20260216110A1, “COMPOUND USEFUL AS THYROID HORMONE RECEPTOR ß-SELECTIVE THYROID HORMONE ANALOG” (NATIONAL UNIVERSITY CORPORATION TOKAI NATIONAL HIGHER …, priority 2022, published 2026).

Molecules are shown by their SMILES. “Also recorded” adds a separate entry of the source.

One series addresses T1, THRα (Homo sapiens, UniProt P10827).
T1 sequence (P10827 1-410 isoform P10827-2): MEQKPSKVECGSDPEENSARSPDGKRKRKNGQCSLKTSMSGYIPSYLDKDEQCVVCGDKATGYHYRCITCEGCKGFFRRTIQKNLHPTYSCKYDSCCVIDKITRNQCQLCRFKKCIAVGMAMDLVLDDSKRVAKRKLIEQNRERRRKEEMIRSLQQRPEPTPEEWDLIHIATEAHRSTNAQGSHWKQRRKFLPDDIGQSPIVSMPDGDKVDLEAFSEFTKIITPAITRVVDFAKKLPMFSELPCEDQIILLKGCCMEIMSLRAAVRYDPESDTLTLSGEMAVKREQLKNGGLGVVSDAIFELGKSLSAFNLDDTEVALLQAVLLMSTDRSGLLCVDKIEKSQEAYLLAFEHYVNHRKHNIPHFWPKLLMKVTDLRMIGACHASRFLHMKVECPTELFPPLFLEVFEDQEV
Conditions: relative to T3; cited from earlier work.

Series [1] has as its system lipid droplets in hepatocytes. In words: Oil Red O staining of liver sections, high-fat diet mice. It is filed as in vivo, C57BL/6J mice. The following applies: HFD mice, 1 μmol/kg-day i.p. for 3 weeks, compared to the vehicle. Here is the method: Lipid droplets are organelles for storing neutral lipids, such as triglycerides and cholesterol esters. Excessive accumulation of lipid droplets in hepatocytes is characteristic of non-alcoholic fatty liver disease (NAFLD). […] Specifically, the procedure performed is described below.
(§1) Male 7-week-old C57BL/6J mice were individually housed in cages (Innocages, ORIENTAL GIKEN) and kept warm at 23° C. with a 12-hour light-dark cycle starting at 8:00 AM. After 1 week of acclimation, the animals were given either a normal diet (ND; 10 kcal % fat, D12450B, Research Diets) or a high-fat diet (HFD; 60 kcal % fat, D12492, Research Diets). […] The injection was given 6 hours after lights on. Food consumption and body weight were measured weekly. Food and water were provided to the animals ad libitum. After 3 weeks of daily injections, whole blood was collected under isoflurane anesthesia, and the heart and liver were harvested. The liver was frozen and stored at −80° C.
20 μm sections were prepared from the frozen liver tissues using a cryostat (CM3050 S, Leica). The sections were mounted on silane-coated glass slides, dried at room temperature, and stored at −80° C. until use. Before staining, the sections were fixed with 1% PFA/1×PBS, pH of 7.4 (Gibco), for 5 minutes, then immersed in 1×PBS for 5 minutes, distilled water for 5 minutes, and a 60% 2-propanol solution for 1 minute. The Oil Red O staining solution was prepared by mixing 0.36 g of Oil Red O (Sigma) with 120 mL of 2-propanol and 80 mL of distilled water, letting it stand at room temperature for 1 hour, filtering the solution, and then leaving it overnight at 37° C. The sections were immersed in the Oil Red O staining solution at 37° C. for 15 minutes, and then rinsed in 60% 2-propanol for 1 minute and in distilled water for 1 minute. Thereafter, the sections were counterstained with Meyer's hematoxylin. […] The area of red-stained lipid droplets was quantified using Image J (NIH), and the percentage of the stained area in the total image area was calculated. Three sections per mouse were analyzed.

For series [2], the system named is left ventricular cardiomyocytes. In words: Transnuclear width of left ventricular cardiomyocytes. Conditions: T3; GC-1 high dose 1 μmol/kg BW/day; ZTA-261 dose not specified. It is filed as in vivo, C57BL/6J mice. Here is the method:
(§2) Specifically, the procedure performed is described below.
The cardiac tissues collected in Test Example 4 were fixed, dehydrated, and paraffin-infiltrated using an automatic fixation and encapsulation device (Sakura Finetek Japan). Paraffin blocks were prepared using a Tissue Tech TEC 6 (Sakura Finetek Japan), and 5 μm thick transverse sections were prepared using a microtome (Leica). The sections were deparaffinized, rehydrated, and then immersed in a Meyer's hematoxylin solution (FUJIFILM Wako Pure Chemical Industries, Ltd.) and in an eosin solution. Thereafter, the sections were dehydrated and mounted using Entellan new (Merck). The sections were observed under a microscope (BX43; Olympus) at 400× magnification, and digital images were captured using cellSens (Olympus). One hundred cells were randomly selected from the left ventricle of each mouse, and their transnuclear width was measured using Image J (NIH) according to a previously reported method.

Series [3] can be described thus: Bone structure parameters (bone metabolism). It is filed as in vivo. Conditions: mice of Test Example 4. As to the method: The effect of the test compounds on bone metabolism was investigated. Specifically, bone structure parameters (bone volume: BV/TV, trabecular number: Tb.N, trabecular separation: Tb.Sp, trabecular thickness: Tb.Th, connectivity density: Conn.D) were measured using thin sections prepared from the bones of mice in Test Example 4.

Series [4] in a line: Serum ALT level (hepatotoxicity). It is filed as in vivo, C57BL/6J mice. The following applies: compared to the vehicle. Here is the method:
as §2
The blood samples collected in Test Example 4 were left to stand at room temperature for 1 hour, and then centrifuged at 4° C., 800×g, for 15 minutes, followed by collecting the supernatant. The serum ALT levels were measured using an Alanine Aminotransferase (ALT or SGPT) Activity Colorimetric/Fluorometric Assay Kit (BioVision) according to the manufacturer's protocol.

Another series has as its system Ldlr, Srebp1c. In words: Further testing: LDL uptake, Ldlr and Srebp1c expression. It is filed as in vivo.
For a further series, the target named is T2, full-length human THRα (Homo sapiens, UniProt P10827).
T2 sequence (P10827 1-410 isoform P10827-2): T1 sequence (P10827 1-410 isoform P10827-2)
As to the kind of experiment: Radioligand-displacement assay ([125I]-T3), THRα. The following applies: ratio of the IC50 values THRα/THRβ.

Series [5] is described as follows: Heart weight (cardiac hypertrophy). It is filed as in vivo, C57BL/6J mice. Here is the method:
as §1
Left ventricular hypertrophy is often associated with hyperthyroidism caused by increased heart rate mediated by hTHRα. Therefore, hTHRβ-selective analogs are expected to avoid this adverse effect on the heart. To examine whether cardiac hypertrophy was induced, the weight of the heart collected in Test Example 4 was measured.

The subject of series [6] is ligand-binding domain of THRα or THRβ. As to the kind of experiment: Luciferase reporter assay for THRβ selectivity in GloResponse 9XGAL4UAS-luc2P HEK293 cells. The following applies: EC50-based, THRα vs THRβ. It is filed as cell-based. Here is the method:
as §2
The cells used and cell culture were as follows. GloResponse 9XGAL4UAS-luc2P HEK293 cells (Promega) were stably transfected with pFN26A (BIND) (Promega) containing the coding region of the ligand-binding domain of THRα or THRβ. The cells were cultured in DMEM supplemented with 10% FBS, 200 μg/mL Hygromycin, and 750 μg/mL G418 in 90 mm cell culture dishes at 37° C. with 5% CO2. The cells were subcultured every 3 days and used in a luciferase reporter assay.
The cells were suspended in an assay medium (DMEM supplemented with 5% charcoal/dextran-treated FBS, 25 mM HEPES, and a 4 mM L-Alanyl-L-glutamine solution) and seeded at 2×10^4 cells/well in 96-well plates coated with poly-L-lysine. After incubation at 37° C. with 5% CO2 for 24 hours, each test compound was added at various concentrations. The following day, firefly luciferase luminescence was measured using a Dual-Glo Luciferase Assay System (Promega) with a microplate reader (SpectraMax i3, Molecular Devices). The luminescence of Renilla luciferase was used as an internal standard.
In general terms: In a reporter assay the amount or activity of a reporter protein is the signal.

Method for full-length human THRα: Specifically, the assessment was performed as described below by using full-length human THRα and THRβ synthesized by in vitro transcription-translation.
The reaction mixture was incubated overnight at 4° C. A nitrocellulose membrane (Optitran, 0.45 μm in pore size, Whatman) pre-blocked with E-400 buffer was placed in a dot-blot apparatus (Minifold I, GE Healthcare), and the reaction mixture was filtered through the membrane, followed by washing three times with 200 μL of E-400 buffer. […] Radioactive signals were scanned using a Typhoon FLA9000 (GE Healthcare) and quantified by using Image Quant TL software (GE Healthcare). The IC50 value of each competitor drug was calculated by fitting the dose response data to a one-site competition model using GraphPad Prism version 7.0 (GraphPad Software).

Regarding `Cc1cc(OCC(=O)O)cc(C)c1Cc1ccc(O)c(C(C)C)c1` [GC-1], the “affinity for THRα lower than T3” value at THRα is recorded as 10 fold. In [1], the “Oil Red O-positive area” value was “significantly reduced”. Besides, in [2], the “width of cardiomyocytes (transnuclear width, left ventricle)” value (“width of cardiomyocytes” below) is given as “increased”. In addition, the “bone structure parameters (BV/TV, Tb.N, Tb.Sp, Tb.Th, Conn.D)” value (“bone structure parameters” for short) in series [3] was “significantly worsened”. Besides, the “serum ALT levels” value in series [4] (high dose 1 μmol/kg BW/day) is on record as “significant increase”. Moreover, in the series on Ldlr, Srebp1c, the “cellular uptake of LDL” value is “promoted”, the “expression of Ldlr” value is given as “increased” and the “expression of Srebp1c” value is “decreased”. In addition, the “affinity for THRα lower than affinity for THRβ” value at full-length human THRα is “about 30 times”. In addition, in series [5] (high dose 1 μmol/kg BW/day), the heart weight entry is “significantly increased”.
Consider `Cc1cc(OCC(=O)O)cc(C)c1Cc1ccc(O)c2ccccc12` [MY-53], for which, in [6], the THRβ selectivity result is “found to show THRβ selectivity”.
Regarding `N[C@@H](Cc1cc(I)c(Oc2ccc(O)c(I)c2)c(I)c1)C(=O)O` [T3, triiodothyronine], the “Oil Red O-positive area” value in series [1] is on record as “significantly reduced”. Besides, the “width of cardiomyocytes” value in series [2] is recorded as “increased”. Further, the “bone structure parameters” value in series [3] is “significantly worsened”. Further, in the series on Ldlr, Srebp1c, the “cellular uptake of LDL” value is recorded as “promoted”, the “expression of Ldlr” value is “increased” and the “expression of Srebp1c” value was “decreased”. In [5] (high dose 1 μmol/kg BW/day), the heart weight result is “significantly increased”.
As for `O=C(O)COc1cc(C(F)(F)F)c(Cc2ccc(O)c3ccccc23)c(C(F)(F)F)c1` [ZTA-245], in series [6], the THRβ selectivity entry is on record as “found to show THRβ selectivity”.
Regarding `O=C(O)Cc1cc(C(F)(F)F)c(Cc2ccc(O)c3ccccc23)c(C(F)(F)F)c1` [ZTA-261], in series [1], the “Oil Red O-positive area” value is “significantly reduced; also recorded: the most effective, reducing the Oil Red O-positive area to a level comparable to the ND-administered group”. Further, in series [2], the “width of cardiomyocytes” value is reported as “no significant increase”. The “bone structure parameters” value in [3] is on record as “no significant changes”. Further, the “serum ALT levels” value in series [4] (high dose 1 μmol/kg BW/day) and in [4] (low dose 0.1 μmol/kg BW/day) was “did not show a significant increase” in each case. Moreover, the “cellular uptake of LDL” value in the series on Ldlr, Srebp1c was “promoted”. In addition, the “expression of Ldlr” value in the series with Ldlr, Srebp1c is reported as “increased”. Also, the “expression of Srebp1c” value in the series with Ldlr, Srebp1c is “decreased”. The heart weight result in series [5] (high dose 1 μmol/kg BW/day) and in [5] (low dose 0.1 μmol/kg BW/day) was “No such effect was observed” throughout.
